Data on 39 compounds can be found in US12612412B2, “Antiviral heterocyclic compounds” (Enanta Pharmaceuticals, Inc., priority 2021, dated 2026).

The test system of assay [1] is HMPV clinical isolate TN/1501/A1. Put plainly: HMPV antiviral assay Method-B (clinical isolate TN/1501/A1 in LLC-MK2 cells, ATP-Lite readout). It counts as cell-based, Human metapneumovirus (HMPV). The note with it: human metapneumovirus, LLC-MK2, 144 h, hMPV WT1501 (clinical isolate TN/1501/A1), 6 days. Put shortly: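 EC50 derived by four-parameter logistic fit of percent cell health, measured by ATP-Lite luminescence and normalised to virus-only and uninfected-cell controls. Compounds run in duplicate from 10 μM top, 3-fold, 10 points. Infection: LLC-MK2 cells, MOI 0.014, 2 μg/mL final TPCK-trypsin, serum-free, 6 days at 37° C.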

The subject of assay [2] is genotype A, "Long" strain RSV. The assay can be described thus: RSV-A assay (CPE protection in Hep-2 cells, ATPlite readout). In kind it is cell-based, Human respiratory syncytial virus (HRSV). Conditions: human respiratory syncytial virus, MOI 0.1, CPE protection. Put shortly:
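In this cytopathic-effect protection format, infected Hep-2 cultures (MOI 0.1) are exposed to compound for 5 days. Surviving cell ATP is quantified with ATPlite, and EC50 is determined.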

[3] abbreviates: genotype A “Long” strain RSV, read-out: Human RSV-A (“Long”).
[4] abbreviates: RSV-A Long strain, read-out: Human RSV-A (“Long”) EC50.

pEC50: −log10 of the molar value. Like-named read-outs stand apart in the source and are kept apart here. Where only a bound is given, the exact number is not on record here.

On to `COc1cc(C(=O)NC[C@](O)(c2cc3c(c(-c4ccc5c(c4)OC(F)(F)O5)n2)OC[C@]3(C)C(N)=O)C2(F)CC2)cc2cc(C3CC3)nn12` [Example 716], for which the figures for the pEC50 in assay [1] and in assay [2] (setting [3]) were over 6.30 and over 6.70, respectively.

On to `C[C@]1(C(N)=O)COc2c1cc([C@@](O)(CNC(=O)c1cc(OC3CC3)c3nn(C4(F)CC4)cc3c1)C(F)(F)F)nc2-c1csc2c(F)cccc12` [Example 605], for which the pEC50 in assay [1] was over 6.30; in assay [2] (setting [3]), over 6.70.

On to `C[C@]1(C(N)=O)COc2c1cc([C@@](O)(CNC(=O)c1cc(F)c3nn(C4CC4)cc3c1)C(F)(F)F)nc2-c1ccc2c(c1)OC(F)(F)O2` [Example 544], for which the pEC50 in assay [1] was over 6.30; in assay [2] (setting [3]) it was over 6.70.

In the case of `Cc1nc2c(OC3CC3)cc(C(=O)NC[C@](O)(c3cc4c(c(-c5ccc6c(c5)OC(F)(F)O6)n3)OC[C@]4(C)C(N)=O)C3CC3)cc2cc1Cl` [Example 540], the figures for the pEC50 in assay [1] and in assay [2] (setting [3]) were over 6.30 and over 6.70, respectively.

Take `COc1cc(C(=O)NC[C@](O)(c2cc3c(c(-c4ccc(F)c(Br)c4F)n2)OC[C@]3(C)C(N)=O)C(F)(F)F)cc2cn(C3CC3)nc12` [Example 956]: the pEC50 in assay [1] was over 6.30; in assay [2] (setting [4]), over 6.70.

As to `COc1cc(C(=O)NC[C@](O)(c2cc3c(c(-c4ccc5c(c4)OC(F)(F)O5)n2)OC[C@]3(C)C(N)=O)C2(F)CC2)cc2sc(C)nc12` [Example 727], the pEC50 in assay [1] was over 6.30; in assay [2] (setting [3]) it was over 6.70.

As for `C[C@]1(C(N)=O)COc2c1cc([C@@](O)(CNC(=O)c1cc(OC3CC3)n3nc(C4CC4)cc3c1)C1CC1)nc2-c1ccc2c(c1)OC(F)(F)O2` [Example 822], the results for the pEC50 in assay [1] and in assay [2] (setting [3]) were over 6.30 and over 6.70, respectively.

In the case of `COc1cc(C(=O)NC[C@](O)(c2cc3c(c(-c4ccc5ccccc5c4)n2)OC[C@]3(C)C(N)=O)C(F)(F)F)cc2cn(C3CC3)nc12` [Example 965], the pEC50 in assay [1] was under 6.30; in assay [2] (setting [4]), under 6.70.

With `Cc1cnc2c(OC(F)F)cc(C(=O)NC[C@](O)(c3cc4c(c(-c5ccc(F)c(F)c5F)n3)OC[C@]4(C)C(N)=O)C3(F)CC3)cc2c1` [Example 730], the pEC50 in assay [1] was over 6.30; in assay [2] (setting [3]) it was over 6.70.

In the case of `COc1cc(C(=O)NC[C@](O)(c2cc3c(c(-c4cccs4)n2)OC[C@]3(C)C(N)=O)C(F)(F)F)cc2cn(C3CC3)nc12` [Example 968], the pEC50 in assay [1] was under 6.30; in assay [2] (setting [4]) it was under 6.70.

As for `COc1cc(C(=O)NC[C@](O)(c2cc3c(c(-c4ccc(C(F)F)s4)n2)OC[C@]3(C)C(N)=O)C(F)(F)F)cc2cn(C3CC3)nc12` [Example 948], the pEC50 in assay [1] was under 6.30; in assay [2] (setting [4]) it was over 6.70.

With `C[C@]1(C(N)=O)COc2c1cc([C@@](O)(CNC(=O)c1cc(OCC(F)F)c3nn(C4(F)CC4)cc3c1)C(F)(F)F)nc2-c1cc(Cl)c(F)cc1F` [Example 617], the pEC50 was over 6.30 in assay [1] and over 6.70 in assay [2] (setting [3]).

For the compound `COc1cc(C(=O)NC[C@](O)(c2cc3c(c(-c4ccc(C5CC5)cc4)n2)OC[C@]3(C)C(N)=O)C(F)(F)F)cc2cn(C3CC3)nc12` [Example 891], the pEC50 in assay [1] was under 6.30; in assay [2] (setting [4]), over 6.70.

`NC(=O)[C@@]1(CF)COc2c1cc([C@@](O)(CNC(=O)c1cc(OC3CC3)c3ncccc3c1)C1CC1)nc2-c1ccc(F)cc1` [Example 1054]: the pEC50 in assay [1] was under 6.30; in assay [2] (setting [4]), over 6.70.

For the compound `C[C@]1(C(N)=O)COc2c1cc([C@@](O)(CNC(=O)c1cc(Cl)c3nn(C4CC4)cc3c1)C(F)(F)F)nc2-c1ccc2c(c1)OC(F)(F)O2` [Example 546], the pEC50 in assay [1] is over 6.30; in assay [2] (setting [3]), over 6.70.

As for `C[C@]1(C(N)=O)COc2c1cc([C@@](O)(CNC(=O)c1ccc(F)c(NC(=O)NC3CC3)c1)C(F)(F)F)nc2-c1ccc(F)c(Cl)c1` [Example 626], the results for the pEC50 in assay [1] and in assay [2] (setting [3]) were under 6.30 and over 6.70, respectively.

For the compound `COc1cc(C(=O)NC[C@](O)(c2cc3c(c(-c4ccc(Cl)cc4)n2)OC[C@]3(C)C(N)=O)C(F)(F)F)cc2cn(C3CC3)nc12` [Example 585], the figures for the pEC50 in assay [1] and in assay [2] (setting [3]) were under 6.30 and over 6.70, respectively.

Consider `COc1cc(C(=O)NC[C@](O)(c2cc3c(c(-c4ccc(F)cc4Cl)n2)OC[C@]3(C)C(N)=O)C(F)(F)F)cc2cc(C3CC3)nn12` [Example 510], for which the pEC50 in assay [1] was over 6.30; in assay [2] (setting [3]), over 6.70.

On to `COc1cc(C(=O)NC[C@](O)(c2cc3c(c(-c4ccc(F)c(Cl)c4F)n2)OC[C@]3(C)C(N)=O)C2(F)CC2)cc2cc(Br)cnc12` [Example 768], for which the pEC50 in assay [1] was over 6.30; in assay [2] (setting [3]), over 6.70.

For `Cc1cnc2c(OCC(F)F)cc(C(=O)NC[C@](O)(c3cc4c(c(-c5ccc(F)c(Cl)c5)n3)OC[C@]4(C)C(N)=O)C(F)(F)F)cc2c1` [Example 497], the pEC50 was over 6.30 in assay [1] and over 6.70 in assay [2] (setting [3]).

Turning to `COc1cc(C(=O)NC[C@](O)(c2cc3c(c(-c4csc5c(F)cccc45)n2)OC[C@]3(C)C(N)=O)C(F)(F)F)cc2cn(C3(F)CC3)nc12` [Example 599], the pEC50 is over 6.30 in assay [1] and over 6.70 in assay [2] (setting [3]).

`COc1cc(C(=O)NC[C@](O)(c2cc3c(c(-c4cc(F)c(F)cc4F)n2)OC[C@]3(C)C(N)=O)C(F)(F)F)cc2cc(Cl)c(C)nc12` [Example 1140]: the pEC50 in assay [1] was over 6.30; in assay [2] (setting [4]), over 6.70.

With `COc1cc(C(=O)NC[C@](O)(c2cc3c(c(-c4c(F)cccc4F)n2)OC[C@]3(C)C(N)=O)C(F)(F)F)cc2cn(C3CC3)nc12` [Example 1233], the pEC50 is under 6.30 in assay [1] and over 6.70 in assay [2] (setting [4]).

In the case of `COc1cc(C(=O)NC[C@](O)(c2cc3c(c(-c4cc(Cl)ccc4F)n2)OC[C@]3(C)C(N)=O)C2CC2)cc2cn(C3CC3)nc12` [Example 536], the pEC50 is over 6.30 in assay [1] and over 6.70 in assay [2] (setting [3]).

`COc1cc(C(=O)NC[C@](O)(c2cc3c(c(-c4ccc(F)cc4)n2)OC[C@]3(C)C(N)=O)C2CC2)cc2cc(C3CC3)nnc12` [Example 763]: the pEC50 in assay [1] is over 6.30; in assay [2] (setting [3]), over 6.70.

Consider `COc1cc(C(=O)NC[C@](O)(c2nc(-c3ccc(F)cc3)c3c(c2F)[C@](C)(C(N)=O)CO3)C(F)(F)F)cc2cn(C3CC3)nc12` [Example 850], for which the pEC50 in assay [1] is under 6.30; in assay [2] (setting [4]), over 6.70.

As for `COc1cc(C(=O)NC[C@](O)(c2cc3c(c(-c4cccc(C5CC5)c4)n2)OC[C@]3(C)C(N)=O)C(F)(F)F)cc2cn(C3CC3)nc12` [Example 977], the figures for the pEC50 in assay [1] and in assay [2] (setting [4]) were under 6.30 and over 6.70, respectively.

With `C[C@]1(C(N)=O)COc2c1cc([C@@](O)(CNC(=O)c1cc(Cl)c3nn(C4CC4)cc3c1)C1CC1)nc2-c1cc(F)c(F)cc1F` [Example 1148], the pEC50 in assay [1] was over 6.30; in assay [2] (setting [4]), over 6.70.

With `C[C@]1(C(N)=O)COc2c1cc([C@@](O)(CNC(=O)c1cc(Cl)c3nn(C4CC4)cc3c1)C1CC1)nc2-c1cc(F)c(F)c(Cl)c1` [Example 790], the pEC50 in assay [1] was over 6.30; in assay [2] (setting [3]), over 6.70.

For `COc1cc(C(=O)NC[C@](O)(c2cc3c(c(-c4ccc(F)c(C(F)(F)F)c4)n2)OC[C@]3(C)C(N)=O)C2(F)CC2)cc2cn(C3CC3)nc12` [Example 749], the pEC50 in assay [1] is over 6.30; in assay [2] (setting [3]), over 6.70.

As for `COc1cc(C(=O)NC[C@](O)(c2cc3c(c(-c4ccc5c(c4)OC(F)(F)O5)n2)OC[C@@]3(C(N)=O)C(F)F)C2CC2)cc2cn(C(F)F)nc12` [Example 1044], the pEC50 in assay [1] was over 6.30; in assay [2] (setting [4]) it was over 6.70.

Regarding `COc1cc(C(=O)NC[C@](O)(c2cc3c(c(-c4csc5c(F)cccc45)n2)OC[C@]3(C)C(N)=O)C(F)(F)F)cc2cn(C(F)F)nc12` [Example 600], the values for the pEC50 in assay [1] and in assay [2] (setting [3]) were over 6.30 and over 6.70, respectively.

Consider `COc1cc(C(=O)NC[C@](O)(c2cc3c(c(-c4ccc5c(c4)OC(F)(F)C(F)(F)O5)n2)OC[C@]3(C)C(N)=O)C(F)(F)F)cc2cn(C3CC3)nc12` [Example 1218], for which the figures for the pEC50 in assay [1] and in assay [2] (setting [4]) were under 6.30 and over 6.70, respectively.

As to `COc1cc(C(=O)NC[C@](O)(c2cc3c(c(-c4ccc(F)cc4Cl)n2)OC[C@]3(C)C(N)=O)C(F)(F)F)cc2cc(Br)cnc12` [Example 521], the figures for the pEC50 in assay [1] and in assay [2] (setting [3]) were over 6.30 and over 6.70, respectively.

For the compound `COc1cc(C(=O)NC[C@](O)(c2cc3c(c(-c4c(F)cc(Cl)cc4F)n2)OC[C@]3(C)C(N)=O)C2CC2)cc2cn(C3(F)CC3)nc12` [Example 1157], the pEC50 in assay [1] was over 6.30; in assay [2] (setting [4]), over 6.70.

Turning to `COc1cc(C(=O)NC[C@](O)(c2cc3c(c(-c4ccc(F)cc4)n2)OC[C@@]3(CF)C(N)=O)C2CC2)cc2cc(Cl)c(C)nc12` [Example 1055], the pEC50 in assay [1] is under 6.30; in assay [2] (setting [4]), under 6.70.

For `COc1cc(C(=O)NC[C@](O)(c2cc3c(c(-c4cc(Cl)c(F)cc4F)n2)OC[C@]3(C)C(N)=O)C2CC2)cc2cc(Cl)c(C)nc12` [Example 666], the pEC50 in assay [1] is over 6.30; in assay [2] (setting [3]), over 6.70.

On to `COc1cc(C(=O)NC[C@](O)(c2cc3c(c(-c4cc(Cl)c(F)c(Cl)c4)n2)OC[C@]3(C)C(N)=O)C(F)(F)F)cc2cn(C3(F)CC3)nc12` [Example 671], for which the pEC50 was under 6.30 in assay [1] and over 6.70 in assay [2] (setting [3]).

Turning to `COc1cc(C(=O)NC[C@](O)(c2cc3c(c(-c4cc(F)c(F)cc4F)n2)OC[C@]3(C)C(N)=O)C2CC2)cc2cc(Br)cnc12` [Example 1149], the pEC50 in assay [1] is over 6.30; in assay [2] (setting [4]), over 6.70.
